Test results as given in ChEMBL document CHEMBL1201862, “PubChem BioAssay data set” (2004).
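Step 1: Grow cells in 96-well plates. Step 2: Expose to compound for 48 hours at 5 concentrations. Step 3: Interpolate endpoints linearly; if unreached, use highest concentration. GI50: concentration for 50% inhibition of growth.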 Calls of active or inactive are those of the source. Cut-off read from the data, not from the text of the source: active = GI50 up to about 1.1 µM and inactive = higher.

Tests used:
Test in all cases: growth of human tumour cells (NCI), 48 h
[1] = tested on: 786-0
[2] = tested on: A498
[3] = tested on: A549
[4] = tested on: ACHN
[5] = tested on: CAKI-1
[6] = tested on: CCRF-CEM
[7] = tested on: COLO 205
[8] = tested on: DLD-1
[9] = tested on: DMS-273
[10] = tested on: DU-145
[11] = tested on: EKVX
[12] = tested on: HCC 2998
[13] = tested on: HCT-116
[14] = tested on: HCT-15
[15] = tested on: HL-60
[16] = tested on: HOP-18
[17] = tested on: HOP-62
[18] = tested on: HOP-92
[19] = tested on: HT-29
[20] = tested on: Hs-578T
[21] = tested on: IGROV-1
[22] = tested on: K562
[23] = tested on: KM-20L2
[24] = tested on: KM12
[25] = tested on: LOX IMVI
[26] = tested on: M14
[27] = tested on: M19-MEL
[28] = tested on: MCF7
[29] = tested on: MDA-MB-231
[30] = tested on: MDA-MB-435
[31] = tested on: MDA-N
[32] = tested on: MOLT-4
[33] = tested on: Malme-3M
[34] = tested on: NCI-H226
[35] = tested on: NCI-H23
[36] = tested on: NCI-H460
[37] = tested on: NCI-H522
[38] = tested on: NCI/ADR-RES
[39] = tested on: OVCAR-3
[40] = tested on: OVCAR-5
[41] = tested on: OVCAR-8
[42] = tested on: PC-3
[43] = tested on: RPMI-8226
[44] = tested on: RXF 393
[45] = tested on: RXF 631
[46] = tested on: SF-268
[47] = tested on: SF-295
[48] = tested on: SF-539
[49] = tested on: SK-MEL-28
[50] = tested on: SK-MEL-2
[51] = tested on: SK-MEL-5
[52] = tested on: SK-OV-3
[53] = tested on: SN12C
[54] = tested on: SNB-19
[55] = tested on: SNB-75
[56] = tested on: SNB-78
[57] = tested on: SR
[58] = tested on: SW-620
[59] = tested on: T47D
[60] = tested on: TK-10
[61] = tested on: U-251
[62] = tested on: UACC-257
[63] = tested on: UACC-62
[64] = tested on: UO-31
[65] = tested on: XF498
[66] = tested on: DMS-114
[67] = tested on: LXFL 529
[68] = tested on: OVCAR-4

C=C1C(=O)C23CC1CCC2C12CO[C@@]3(O)[C@@H](O)C1C(C)(C)C=CC2=O (some centres not stated)
GI50 [1]: 653 nM (active) | GI50 [2]: > 10000 nM (inactive) | GI50 [3]: 2030 nM (inactive) | GI50 [4]: 774 nM (active) | GI50 [5]: 2440 nM (inactive) | GI50 [6]: 313 nM (active) | GI50 [7]: 714 nM (active) | GI50 [8]: 721 nM (active) | GI50 [9]: 568 nM (active) | GI50 [10]: 23400 nM (inactive) | GI50 [11]: 5260 nM (inactive) | GI50 [12]: 1150 nM (inactive) | GI50 [13]: 488 nM (active) | GI50 [14]: 838 nM | GI50 [15]: 143 nM (active) | GI50 [16]: 1190 nM (inactive) | GI50 [17]: 7410 nM (inactive) | GI50 [18]: 785 nM (active) | GI50 [19]: 234 nM (active) | GI50 [20]: 31600 nM (inactive) | GI50 [21]: 3940 nM (inactive) | GI50 [22]: 1530 nM (inactive) | GI50 [23]: 1440 nM (inactive) | GI50 [24]: 14600 nM (inactive) | GI50 [25]: 3630 nM (inactive) | GI50 [26]: 2750 nM (inactive) | GI50 [27]: 824 nM (active) | GI50 [28]: 2440 nM (inactive) | GI50 [29]: 3850 nM (inactive) | GI50 [30]: 3780 nM (inactive) | GI50 [31]: 2980 nM (inactive) | GI50 [32]: 281 nM (active) | GI50 [33]: 755 nM (active) | GI50 [34]: 6440 nM (inactive) | GI50 [35]: 752 nM (active) | GI50 [36]: 713 nM (active) | GI50 [37]: 1240 nM (inactive) | GI50 [38]: 9310 nM (inactive) | GI50 [39]: 1110 nM (active) | GI50 [40]: 4760 nM (inactive) | GI50 [41]: 160 nM (active) | GI50 [42]: 2740 nM (inactive) | GI50 [43]: 750 nM (active) | GI50 [44]: 728 nM (active) | GI50 [45]: 1030 nM (active) | GI50 [46]: 1650 nM (inactive) | GI50 [47]: 1480 nM (inactive) | GI50 [48]: 861 nM (active) | GI50 [49]: 738 nM (active) | GI50 [50]: 925 nM (active) | GI50 [51]: 6650 nM (inactive) | GI50 [52]: 7530 nM (inactive) | GI50 [53]: 1150 nM (inactive) | GI50 [54]: 1410 nM (inactive) | GI50 [55]: 6030 nM (inactive) | GI50 [56]: 718 nM (active) | GI50 [57]: 186 nM (active) | GI50 [58]: 2930 nM (inactive) | GI50 [59]: 5380 nM (inactive) | GI50 [60]: 893 nM (active) | GI50 [61]: 1490 nM (inactive) | GI50 [62]: 684 nM (active) | GI50 [63]: 989 nM (active) | GI50 [64]: 1730 nM (inactive) | GI50 [65]: 791 nM (active)

COc1ccc2c(c1)c(=O)c1c(NCCN(C)C)ccc3nnn2c31
GI50 [1]: 1710 nM (inactive) | GI50 [2]: 9510 nM (inactive) | GI50 [3]: 2210 nM (inactive) | GI50 [4]: 2400 nM (inactive) | GI50 [5]: 3010 nM (inactive) | GI50 [6]: 918 nM (active) | GI50 [7]: 1360 nM (inactive) | GI50 [8]: 1710 nM (inactive) | GI50 [66]: 3640 nM (inactive) | GI50 [11]: 2050 nM (inactive) | GI50 [12]: 2760 nM (inactive) | GI50 [13]: 655 nM (active) | GI50 [14]: 3820 nM | GI50 [15]: 1820 nM (inactive) | GI50 [16]: 504 nM (active) | GI50 [17]: 2820 nM (inactive) | GI50 [18]: 2190 nM (inactive) | GI50 [19]: 1570 nM (inactive) | GI50 [21]: 3330 nM (inactive) | GI50 [22]: 1600 nM (inactive) | GI50 [23]: 1150 nM (inactive) | GI50 [24]: 1110 nM (active) | GI50 [25]: 1330 nM (inactive) | GI50 [67]: 2910 nM (inactive) | GI50 [26]: 3990 nM (inactive) | GI50 [27]: 6610 nM (inactive) | GI50 [32]: 321 nM (active) | GI50 [33]: 3940 nM (inactive) | GI50 [34]: 2460 nM (inactive) | GI50 [35]: 2680 nM (inactive) | GI50 [36]: 1610 nM (inactive) | GI50 [37]: 2700 nM (inactive) | GI50 [39]: 4240 nM (inactive) | GI50 [68]: 1970 nM (inactive) | GI50 [40]: 4060 nM (inactive) | GI50 [41]: 1040 nM (active) | GI50 [43]: 1650 nM (inactive) | GI50 [44]: 27.2 nM (active) | GI50 [45]: 2210 nM (inactive) | GI50 [46]: 2130 nM (inactive) | GI50 [47]: 2110 nM (inactive) | GI50 [48]: 4040 nM (inactive) | GI50 [49]: 5780 nM (inactive) | GI50 [50]: 6310 nM (inactive) | GI50 [51]: 3170 nM (inactive) | GI50 [52]: 4010 nM (inactive) | GI50 [53]: 2490 nM (inactive) | GI50 [54]: 3520 nM (inactive) | GI50 [55]: 7100 nM (inactive) | GI50 [56]: 4350 nM (inactive) | GI50 [57]: 493 nM (active) | GI50 [58]: 700 nM (active) | GI50 [60]: 2500 nM (inactive) | GI50 [61]: 3080 nM (inactive) | GI50 [62]: 4690 nM (inactive) | GI50 [63]: 4710 nM (inactive) | GI50 [64]: 2170 nM (inactive)

NCCCNCCS [WR-1065]
GI50 [3]: > 100000 nM (inactive) | GI50 [5]: > 100000 nM (inactive) | GI50 [9]: > 100000 nM (inactive) | GI50 [11]: > 100000 nM (inactive) | GI50 [12]: > 100000 nM (inactive) | GI50 [14]: > 100000 nM | GI50 [15]: > 100000 nM (inactive) | GI50 [16]: > 100000 nM (inactive) | GI50 [18]: > 100000 nM (inactive) | GI50 [19]: > 100000 nM (inactive) | GI50 [22]: > 100000 nM (inactive) | GI50 [23]: > 100000 nM (inactive) | GI50 [24]: > 100000 nM (inactive) | GI50 [67]: > 100000 nM (inactive) | GI50 [26]: > 100000 nM (inactive) | GI50 [32]: > 100000 nM (inactive) | GI50 [68]: > 100000 nM (inactive) | GI50 [40]: > 100000 nM (inactive) | GI50 [41]: > 100000 nM (inactive) | GI50 [44]: > 100000 nM (inactive) | GI50 [45]: > 100000 nM (inactive) | GI50 [46]: > 100000 nM (inactive) | GI50 [47]: > 100000 nM (inactive) | GI50 [50]: > 100000 nM (inactive) | GI50 [51]: > 100000 nM (inactive) | GI50 [52]: > 100000 nM (inactive) | GI50 [53]: > 100000 nM (inactive) | GI50 [54]: > 100000 nM (inactive) | GI50 [56]: > 100000 nM (inactive) | GI50 [60]: > 100000 nM (inactive) | GI50 [61]: > 100000 nM (inactive) | GI50 [62]: > 100000 nM (inactive) | GI50 [63]: > 100000 nM (inactive) | GI50 [64]: > 100000 nM (inactive) | GI50 [65]: > 100000 nM (inactive)
